Results on five molecules are retold here after PMC6123676, “Androgen receptor degradation by the proteolysis-targeting chimera ARCC-4 outperforms enzalutamide in cellular models of prostate cancer drug resistance” (Communications Biology, 2018).

By IC50 is commonly meant the concentration that inhibits the measured activity by half. For orientation: Dmax means the largest share of the target that was removed. Higher therefore signals deep degradation. As a reminder, the DC50 is the concentration giving 50% degradation.

Assay [1] deals with T1, androgen receptor (Homo sapiens, UniProt P10275). The assay is described as follows: competition radioligand binding with [3H]R1881 (LNCaP cell lysate). The arrangement: gene AR; AR in LNCaP cell lysates.
Target sequence in this assay (P10275 whole entry): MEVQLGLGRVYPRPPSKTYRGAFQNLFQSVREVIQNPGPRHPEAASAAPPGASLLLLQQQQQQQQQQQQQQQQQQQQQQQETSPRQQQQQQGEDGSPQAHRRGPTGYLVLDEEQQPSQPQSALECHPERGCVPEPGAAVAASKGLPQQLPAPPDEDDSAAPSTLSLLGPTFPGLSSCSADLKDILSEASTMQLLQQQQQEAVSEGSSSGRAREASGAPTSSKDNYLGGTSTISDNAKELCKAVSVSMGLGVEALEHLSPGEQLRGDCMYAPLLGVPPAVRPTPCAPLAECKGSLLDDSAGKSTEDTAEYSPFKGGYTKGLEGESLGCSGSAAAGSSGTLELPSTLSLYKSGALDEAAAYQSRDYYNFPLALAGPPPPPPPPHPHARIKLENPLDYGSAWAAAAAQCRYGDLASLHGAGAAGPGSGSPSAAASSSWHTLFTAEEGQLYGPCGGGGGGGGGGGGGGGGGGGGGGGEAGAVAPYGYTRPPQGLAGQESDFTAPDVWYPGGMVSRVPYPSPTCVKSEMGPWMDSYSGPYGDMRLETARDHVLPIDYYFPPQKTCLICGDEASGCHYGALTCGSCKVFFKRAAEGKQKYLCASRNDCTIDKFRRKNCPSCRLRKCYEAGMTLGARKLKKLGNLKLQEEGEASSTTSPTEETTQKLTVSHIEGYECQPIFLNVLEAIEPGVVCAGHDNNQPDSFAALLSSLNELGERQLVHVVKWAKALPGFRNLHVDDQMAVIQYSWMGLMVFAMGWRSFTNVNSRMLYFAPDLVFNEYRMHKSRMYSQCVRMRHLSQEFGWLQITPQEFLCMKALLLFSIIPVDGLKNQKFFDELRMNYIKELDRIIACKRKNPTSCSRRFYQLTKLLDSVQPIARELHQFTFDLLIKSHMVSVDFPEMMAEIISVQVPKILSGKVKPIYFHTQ
Assay [2] has as its target T1, androgen receptor. The assay can be described thus: PROTAC degradation of AR in VCaP cells, western blot (Dmax). Set-up: gene AR; endogenous AR in VCaP cells; with VHL. The format is cell-based. (In western blotting, separated proteins are transferred to a membrane and probed.)
Target sequence in this assay (P40337 whole entry): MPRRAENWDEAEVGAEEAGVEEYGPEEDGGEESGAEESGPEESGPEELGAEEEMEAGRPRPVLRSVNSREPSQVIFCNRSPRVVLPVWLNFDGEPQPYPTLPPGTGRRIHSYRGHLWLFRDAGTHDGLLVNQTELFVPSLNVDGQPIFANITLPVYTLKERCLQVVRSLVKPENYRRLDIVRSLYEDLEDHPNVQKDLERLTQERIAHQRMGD
Target sequence in this assay (P10275 whole entry): as the sequence (P10275 whole entry) above
In assay [3] the target is T2, von Hippel-Lindau (VHL) (Homo sapiens, UniProt P40337).
T2 construct: endogenous VHL in VCaP cells; with androgen receptor
T2 sequence (P10275 whole entry): as above
T2 sequence (P40337 whole entry): as the sequence (P40337 whole entry) above
The assay is described as follows: AR degradation lost on VHL knockdown and with the non-VHL-binding epimer. The format is cell-based.

The target of assay [4] is T1, androgen receptor. The arrangement: gene AR.
Target sequence in this assay (P10275 whole entry): as the sequence (P10275 whole entry) above
In assay [5] the target is T1, androgen receptor. The assay can be described thus: degradation of AR in VCaP cells, western blot (DC50; Dmax […]). The format is cell-based. The arrangement: gene AR; endogenous AR in VCaP cells.
Target sequence in this assay (P10275 whole entry): as above

Like-named read-outs stand apart in the source and are kept apart here.

For `Cc1ncsc1-c1ccc(CNC(=O)[C@@H]2C[C@H](O)CN2C(=O)[C@@H](NC(=O)COCCCCOc2ccc(-c3ccc(N4C(=S)N(c5ccc(C#N)c(C(F)(F)F)c5)C(=O)C4(C)C)cc3)cc2)C(C)(C)C)cc1` (mixture of isomers) [compound 3, epimer], the IC50 in assay [1] stood at 41 nM.

Regarding `Cc1ncsc1-c1ccc(CNC(=O)[C@@H]2C[C@@H](O)CN2C(=O)[C@@H](NC(=O)COCCOCCOCCOc2ccc(N3C(=S)N(c4ccc(C#N)c(C(F)(F)F)c4)C(=O)C3(C)C)cc2)C(C)(C)C)cc1` [2a], the Dmax in assay [2] was determined as 47%. `Cc1ncsc1-c1ccc(CNC(=O)[C@@H]2C[C@@H](O)CN2C(=O)[C@@H](NC(=O)COCCCCOc2ccc(-c3ccc(N4C(=S)N(c5ccc(C#N)c(C(F)(F)F)c5)C(=O)C4(C)C)cc3)cc2)C(C)(C)C)cc1` [2c, ARCC-4]: the IC50 in assay [1] (read-out: IC50) is 36 nM. Moreover, the “AR degradation lost on VHL knockdown and with the non-VHL-binding epimer” value in assay [3] is “confirmed that ARCC-4-mediated AR degradation is dependent upon VHL recruitment and binding”. `C[C@]1(O)CC[C@H]2[C@@H]3CCC4=CC(=O)CCC4=C3C=C[C@@]21C` [R1881]: the “radioligand of the AR binding assay; also out-competes ARCC-4 in VCaP cells” value in assay [4] was “AR radioligand binding assay to determine the IC50 values for inhibiting binding between AR and (^3H) R1881”. Molecule `CC1(C)C(=O)N(c2ccc(C#N)c(C(F)(F)F)c2)C(=S)N1CCCC(=O)NCCOCCOC(=O)CC12CC3CC(CC(C3)C1)C2` [SARD279] showed a DC50 in assay [5] of 1100 nM.
